Results published in publication PMC10980208, “A novel micellular fluorogenic substrate for quantitating the activity of 1-phosphatidylinositol 4,5-bisphosphate phosphodiesterase gamma (PLCγ) enzymes” (PLOS ONE, 2024).

Target: T1, PLCγ2-P522R (Homo sapiens, UniProt P16885, P522R)
T1 construct: gene PLCG2
T1 sequence (P16885 1-1195 P522R): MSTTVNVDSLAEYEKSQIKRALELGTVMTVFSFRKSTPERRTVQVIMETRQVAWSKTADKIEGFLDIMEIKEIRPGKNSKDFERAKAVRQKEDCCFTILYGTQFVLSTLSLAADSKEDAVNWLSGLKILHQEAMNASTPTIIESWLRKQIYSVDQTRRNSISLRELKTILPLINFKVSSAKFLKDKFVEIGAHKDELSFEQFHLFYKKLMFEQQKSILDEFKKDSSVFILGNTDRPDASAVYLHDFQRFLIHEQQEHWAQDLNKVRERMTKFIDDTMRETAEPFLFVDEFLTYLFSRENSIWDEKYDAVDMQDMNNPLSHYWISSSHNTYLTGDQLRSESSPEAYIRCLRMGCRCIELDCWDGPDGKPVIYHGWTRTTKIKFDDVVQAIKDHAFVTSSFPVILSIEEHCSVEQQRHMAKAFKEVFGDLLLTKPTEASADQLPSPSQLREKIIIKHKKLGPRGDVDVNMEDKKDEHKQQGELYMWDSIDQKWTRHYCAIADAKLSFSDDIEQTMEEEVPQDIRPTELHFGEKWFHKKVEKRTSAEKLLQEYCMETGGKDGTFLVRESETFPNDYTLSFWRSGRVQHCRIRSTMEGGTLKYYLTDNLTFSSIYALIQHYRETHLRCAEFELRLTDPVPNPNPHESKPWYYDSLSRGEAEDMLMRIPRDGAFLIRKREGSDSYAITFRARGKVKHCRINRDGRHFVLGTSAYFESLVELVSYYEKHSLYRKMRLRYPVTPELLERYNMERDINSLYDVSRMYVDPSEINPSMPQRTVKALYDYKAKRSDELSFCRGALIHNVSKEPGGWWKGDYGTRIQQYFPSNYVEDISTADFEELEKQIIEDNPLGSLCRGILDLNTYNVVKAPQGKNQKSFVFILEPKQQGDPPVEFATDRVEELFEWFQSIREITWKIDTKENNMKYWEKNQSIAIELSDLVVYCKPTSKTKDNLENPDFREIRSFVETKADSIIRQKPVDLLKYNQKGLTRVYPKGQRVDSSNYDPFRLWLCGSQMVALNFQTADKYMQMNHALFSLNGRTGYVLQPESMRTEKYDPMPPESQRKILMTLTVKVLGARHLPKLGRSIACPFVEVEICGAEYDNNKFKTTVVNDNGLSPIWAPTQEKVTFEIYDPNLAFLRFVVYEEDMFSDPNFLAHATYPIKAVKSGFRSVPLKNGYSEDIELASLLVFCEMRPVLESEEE
Test: fluorogenic micelle enzyme assay
Type: biochemical

For CCCCCCCCCCCCCCCCOc1cc(COC(=O)Nc2ccc3c(C(F)(F)F)cc(=O)oc3c2)ccc1OP(=O)(O)O[C@@H]1[C@H](O)[C@H](O)[C@@H](OP(=O)(O)O)[C@H](OP(=O)(O)O)[C@H]1O [C16CF3-coumarin], the “fluorogenic micelle enzyme assay” value was “both PLCγ1-D1665H and PLCγ2-P522R were able to process the C16CF3-coumarin substrate faster than the corresponding wild-type enzymes”.
